In patent publication US20260232619A1, “TREATMENT OF NEUROLOGICAL DISORDERS WITH ALLICIN AND ANALOGUES THEREOF” (KATHOLIEKE UNIVERSITEIT LEUVEN, priority 2023, published 2026):
“Also recorded” adds a separate entry of the source.

Key:
[1] = tested on: scn1lab−/− larvae; assay: Locomotor activity assessment in zebrafish scn1lab−/− mutant model of Dravet syndrome; type: in vivo, zebrafish (Danio rerio)
Procedure: (§1) FIG. 2. […] (A) Anti-seizure treatment schedule: 3 dpf scn1lab−/− larvae were exposed to the MTC of allicin or VHC control. 2 days later, abnormal locomotor behavior and epileptiform brain activity of treated larvae was analyzed using an automated tracking device (Noldus) and local field potential recordings, respectively. (B) The normalized cumulative duration of activity (%) is represented as mean±SEM. According to the treatment schedule depicted in panel A, anti-seizure effect of allicin was examined in scnLab−/− larvae at 5 dpf (n=22), and compared to VHC treated scnLab−/− larvae (n=24). VHC treated scn1Lab+/+ larvae (n=24) were included as control. (C) The average number of epileptiform events per 10-minute recording is represented as mean±SEM. Treatment schedule depicted in panel A was followed. Accordingly, electrophysiological effect of allicin was examined in scnLab−/− larvae at 5 dpf (n=15), and compared to VHC treated scnLab−/− larvae (n=15). VHC treated scn1Lab+/+ larvae (n=8) were included as control (D) Early treatment schedule: 1 dpf scn1lab−/− larvae were dechorionated and exposed to the MTC of allicin or VHC control. 2 days later, swimming medium of the larvae was replenished with identical concentrations of allicin or VHC, respectively. At 5 dpf, abnormal locomotor behavior and epileptiform brain activity of treated larvae was analyzed using an automated tracking device (Noldus) and local field potential recordings, respectively. (continued on page 6)(continued from page 5) (E) The normalized cumulative duration of activity (%) is represented as mean±SEM. […] At 5 dpf, abnormal locomotor behavior and epileptiform brain activity of treated larvae was analyzed using an automated tracking device (Noldus) and local field potential recordings, respectively. […]
(§2) The mutant larval fish typically develop signs of epilepsy (hyperlocomotor activity, abnormal brain electrical discharges as assessed by Local Field Potential (LFP) measurements) at 4-5 dpf (days post-fertilization). […]

[2] = tested on: scn1lab−/− larvae; assay: Non-invasive local field potential (LFP) recordings in zebrafish scn1lab−/− mutant model of Dravet syndrome; type: in vivo, zebrafish (Danio rerio)
Procedure: as §1, §2

For `C=CCS[S@@+]([O-])CC=C` (racemic) [allicin, S-(Prop-2-en-1-yl) prop-2-ene-1-sulfinothioate], the “abnormal locomotor behavior (hyperlocomotor activity) compared to VHC treated controls” value ([1]; anti-seizure treatment schedule: allicin at MTC from 3 dpf onwards (after seizure onset), measured at 5 dpf (FIG. 2B)) was “did not demonstrate significant decreases; also recorded: rescue effect is not present”, the “abnormal hyperactive behavior compared to VHC controls” value ([1]; early treatment schedule: dechorionated at 1 dpf, exposed to allicin at MTC for 4 days, measured at 5 dpf (FIG. 2E)) was “highly significant decreases” and the “typical symptoms of epilepsy: hyperlocomotor activity” value ([1]; exposed during the 0-3 dpf period to non-toxic concentrations, measured at 5 dpf) was “are not present”. The “epileptiform brain activity compared to VHC treated controls” value ([2]; anti-seizure treatment schedule: allicin at MTC from 3 dpf onwards (after seizure onset), LFP at 5 dpf (FIG. 2C)) was “did not demonstrate significant decreases; also recorded: rescue effect is not present”, the epileptiform events ([2]; early treatment schedule: dechorionated at 1 dpf, exposed to allicin at MTC for 4 days, LFP at 5 dpf (FIG. 2F)) was “significantly reduced to similar levels as observed in wild-type and heterozygous siblings” and the “typical symptoms of epilepsy: abnormal brain electrical discharges” value ([2]; exposed during the 0-3 dpf period to non-toxic concentrations, measured at 5 dpf (data not shown)) was “are not present”.
